Assay results published in ChEMBL document CHEMBL1201862, “PubChem BioAssay data set” (2004).
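Cells were grown in 96-well plates and exposed to each compound for 48 hours at five concentrations; endpoints were interpolated linearly between bracketing concentrations, or set to the highest concentration if not reached. The concentration for 50% growth inhibition is given as GI50.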 Active and inactive are the calls of the source. Cut-off read from the data, not from the text of the source: active = GI50 up to about 1.1 µM and inactive = higher.

Experiments:
Test in all cases: growth of human tumour cells (NCI), 48 h
HCC 2998 = tested on: HCC 2998
OVCAR-5 = tested on: OVCAR-5
COLO 205 = tested on: COLO 205
SK-MEL-5 = tested on: SK-MEL-5
UO-31 = tested on: UO-31
A549 = tested on: A549
NCI-H522 = tested on: NCI-H522
SN12C = tested on: SN12C
NCI-H226 = tested on: NCI-H226
K562 = tested on: K562
HCT-116 = tested on: HCT-116
HL-60 = tested on: HL-60
ACHN = tested on: ACHN
SR = tested on: SR
HCT-15 = tested on: HCT-15
OVCAR-4 = tested on: OVCAR-4

| Structure (SMILES) | GI50 (HCC 2998) | GI50 (OVCAR-5) | GI50 (COLO 205) | GI50 (SK-MEL-5) | GI50 (UO-31) | GI50 (A549) | GI50 (NCI-H522) | GI50 (SN12C) | GI50 (NCI-H226) | GI50 (K562) | GI50 (HCT-116) | GI50 (HL-60) | GI50 (ACHN) | GI50 (SR) | GI50 (HCT-15) [µM] | GI50 (OVCAR-4) |
| --- | --- | --- | --- | --- | --- | --- | --- | --- | --- | --- | --- | --- | --- | --- | --- | --- |
| Cc1cccc2c1NC(c1c(C)[nH]c3ccccc13)C2 (stereo not given) | > 100 µM (inactive) | > 100 µM (inactive) | 56 µM (inactive) | > 100 µM (inactive) | 64.4 µM (inactive) | > 100 µM (inactive) | > 100 µM (inactive) | > 100 µM (inactive) | 80.5 µM (inactive) | > 100 µM (inactive) | > 100 µM (inactive) | 50.1 µM (inactive) | 94 µM (inactive) | > 100 µM (inactive) | > 100 |  |
| CCCCc1c2c(nc3c1CCc1cc4cc5c(nc4nc1-3)-c1nc3c(c(CCCC)c1CC5)CCCC3)CCCC2 | 62.2 µM (inactive) |  | 35.4 µM (inactive) |  | 68.5 µM (inactive) | 20.5 µM (inactive) | 43.7 µM (inactive) | 56.4 µM (inactive) | 19.4 µM (inactive) | 39.4 µM (inactive) | 34.5 µM (inactive) | 42.1 µM (inactive) | 23.8 µM (inactive) | 47.4 µM (inactive) | 33.2 |  |
| CCCC12Cc3c(OC)ccc(OC)c3CC(Cc3c(OC)ccc(OC)c31)C2=O (stereo not given) | > 100 µM (inactive) | > 100 µM (inactive) |  | 73.5 µM (inactive) | > 100 µM (inactive) | > 100 µM (inactive) | 81.5 µM (inactive) | > 100 µM (inactive) | 24.8 µM (inactive) | > 100 µM (inactive) | 10.8 µM (inactive) | 7.21 µM (inactive) | > 100 µM (inactive) | 7.29 µM (inactive) | > 100 | 18.8 µM (inactive) |
| Cc1cc2c(=O)cc(-c3cccs3)oc2c(C(=O)O)c1C | > 100 µM (inactive) | > 100 µM (inactive) | > 100 µM (inactive) | > 100 µM (inactive) | > 100 µM (inactive) | > 100 µM (inactive) | 21.2 µM (inactive) | > 100 µM (inactive) |  | 35.8 µM (inactive) | > 100 µM (inactive) |  | > 100 µM (inactive) |  | 42.8 | > 100 µM (inactive) |
| C=C1c2[nH]c3c([N+](=O)[O-])c(OC)ccc3c2CCN1C(C)=O | > 100 µM (inactive) | > 100 µM (inactive) | > 100 µM (inactive) |  | > 100 µM (inactive) | > 100 µM (inactive) | > 100 µM (inactive) | > 100 µM (inactive) | > 100 µM (inactive) | > 100 µM (inactive) | > 100 µM (inactive) | > 100 µM (inactive) | > 100 µM (inactive) | > 100 µM (inactive) | > 100 | > 100 µM (inactive) |
| CC(C)(C)C1=CC(=N/N=c2\scc(-c3ccccc3)n2-c2ccccc2)C=C(C(C)(C)C)C1=O | > 100 µM (inactive) | > 100 µM (inactive) | > 100 µM (inactive) | > 100 µM (inactive) | > 100 µM (inactive) | > 100 µM (inactive) | > 100 µM (inactive) | > 100 µM (inactive) | > 100 µM (inactive) | > 100 µM (inactive) | > 100 µM (inactive) | > 100 µM (inactive) | > 100 µM (inactive) | > 100 µM (inactive) | > 100 | > 100 µM (inactive) |
| Cc1ccc(NC(=O)C2C(=O)N(c3ccc(C)c(C)c3)C(=O)/C2=N/O)cc1C (stereo not given) | > 100 µM (inactive) | > 100 µM (inactive) | > 100 µM (inactive) | > 100 µM (inactive) | > 100 µM (inactive) | > 100 µM (inactive) | > 100 µM (inactive) | > 100 µM (inactive) | > 100 µM (inactive) | > 100 µM (inactive) | > 100 µM (inactive) | > 100 µM (inactive) | > 100 µM (inactive) |  | > 100 |  |
| O=C(NNc1ccccc1)/C(=C/c1ccc2c(c1)OCO2)NC(=O)c1ccccc1 | > 100 µM (inactive) | > 100 µM (inactive) | 40.1 µM (inactive) | > 100 µM (inactive) | > 100 µM (inactive) | > 100 µM (inactive) | 33.3 µM (inactive) | > 100 µM (inactive) | 96.2 µM (inactive) | > 100 µM (inactive) | > 100 µM (inactive) | > 100 µM (inactive) | > 100 µM (inactive) | 32.2 µM (inactive) | > 100 | 66.2 µM (inactive) |
| CC(C)(C)C(=O)CC(=O)C(C)(C)C.CC(C)(C)C(=O)CC(=O)C(C)(C)C.[SiH4] | 0.393 µM (active) | 2.21 µM (inactive) | 1.46 µM (inactive) | 2.1 µM (inactive) | 1.99 µM (inactive) | 2.95 µM (inactive) | 0.573 µM (active) | 1.18 µM (inactive) | 0.0428 µM (active) | 1.57 µM (inactive) | 1.26 µM (inactive) |  | 0.689 µM (active) |  |  | 0.612 µM (active) |
| O=C1Cc2c([nH]c3ccccc23)-c2ccccc2N1 [PAULLONE] | 19.9 µM (inactive) | 26.8 µM (inactive) | 22 µM (inactive) | 22.8 µM (inactive) | 27.2 µM (inactive) | 36.4 µM (inactive) | 17.3 µM (inactive) | 38.2 µM (inactive) | 27.8 µM (inactive) | 19.5 µM (inactive) | 16.7 µM (inactive) | 15.4 µM (inactive) | 36.6 µM (inactive) |  | 30.9 | 43.1 µM (inactive) |
